Results from US20210348171A1, “PHARMACOPROTEOMICS PLATFORM IDENTIFYING KINOME FEATURES REGULATING DRUG RESPONSE IN CANCER” (University of Washington, priority 2020, published 2021).

Assays:
Type in all cases: cell-based, Human
[1] = tested on: FOCUS, SKHep1, SNU761 RNAi lines; test: Drug synergy in AAK1, RALBP1, REPS1, REPS2 knockdown lines (Cell Titer Glo 2.0); details: RNAi lines vs scramble control, 72 hours
Description: (1) Kinases and their interaction partners are depleted from cell lines using either small hairpin RNAs (shRNAs) or CRISPR/Cas9 knockout. […] This assay aims to discover drug synergies that may be exploited to develop novel combination therapies.
The next step was to assess the ability of an AAK1 knockdown to sensitize the cells to extant KI targeting therapeutics.

[2] = tested on: mesenchymal HCC cells with CAMK1D shRNAi knockdown; test: Drug sensitization in CAMK1D knockdown lines (Cell Titer Glo 2.0); details: RNAi lines vs scramble control, 72 hours
Description: The approach to validate the role AAK1 is represented schematically in FIG. 10A. As illustrated, the general workflow pipeline is to test the biological function of kinases and their interaction partners function in EMT and cancer therapy resistance. (1) Kinases and their interaction partners are depleted from cell lines using either small hairpin RNAs (shRNAs) or CRISPR/Cas9 knockout. (2) Effects of RNAi knockdown (KD) or CRISPR knockout (KO) are quantified on cellular signaling pathways using unbiased MS-based kinome-centric and global proteome and phosphoproteome profiling. (3) KD/KO effects on EMT state are studied by quantifying 12 well-known EMT and stemness markers such as CDH1, VIM, SNAI2 and TWIST1 using qPCR and western blotting. (4) KD/KO effects are confirmed/determined on cancer therapy resistance by treating KD/KO cell lines with 15 clinical and pre-clinical HCC drugs, quantifying cell viability using the Promega Cell Titer Glo 2.0 assay. […] (5) KD/KO effects are measured on cell migration and invasion by conducting trans-well migration and wound scratch assays. […]
Further analyses of CAMK1D were conducted to further investigate its role in EMT and potential therapeutic target. […] Phosphoproteins were quantified using global MS-based phosphoproteomics according to our previously published protocol. […]

SNU449 cells = test: Inhibitor co-treatment growth inhibition (WZ4003 with AZD7762 or dinaciclib); details: for decrease of EC50 on cotreatment with WZ4003: cotreatment with NUAK1/2 inhibitor WZ4003, 72 h, n=4; for dose dependence of the cotreatment effect: AZD7762 plus WZ4003
Description: To identify combinatorial treatment strategies targeting mesenchymal and drug resistant HCC cells, the next step was to analyze drug sensitivity pathways that become activated upon AXL and NUAK1/2 inhibition and EMT reversal. […] It was also observed increased cell cycle activity among epithelial lines in the 17 HCC line panel (FIG. 9B), that was accompanied by elevated activity of kinases promoting DDR signaling and cell survival under conditions of replication stress. For instance, activation of CHEK1 and 2 along with increased phosphorylation of ATR, CHEK1/2 and WEE1 substrates were observed (FIGS. 4A and 9C). Similarly, AXL RNAi in FOCUS cells activated the DDR kinases CHEK1 and WEE1, increasing phosphorylation of their substrates CDK11B and CDK2 (FIGS. 4B and 9D). […] It was reasoned, therefore, that combinatorial inhibition of AXL or NUAK1/2, as well as cell cycle checkpoint kinases could efficiently kill mesenchymal HCC cells (FIG. 4D). To test this strategy, the mesenchymal and drug resistant SNU449 line was cotreated with the selective NUAK1/2 inhibitor WZ4003 (Banerjee, S., et al. (2014). Characterization of WZ4003 and HTH-01-015 as selective inhibitors of the LKB1-tumour-suppressor-activated NUAK kinases. Biochem J 457, 215-225, incorporated herein by reference in its entirety) and the CHEK1/2 inhibitor AZD7762. Additionally, the CDK inhibitor dinaciclib was used to test if elevated, EMT state-dependent, cell cycle activity translates into increased efficacy of such drugs. […] These encouraging results led to establishment of SNU449 NUAK1 or NUAK2 RNAi cells (FIG. 9E). Gratifyingly, treating SNU449 NUAK RNAi cells and WT controls with varying doses of AZD7762 and dinaciclib recapitulated the drug co-treatment results (˜3- to 4-fold decrease in EC50s, FIG. 4H). To consolidate these findings, the FOCUS NUAK and AXL RNAi cell lines were tested against AZD7762 and dinaciclib. As in SNU449 cells, NUAK1/2 RNAi FOCUS cells were sensitized to kinase inhibition up to ˜5-fold (FIG. 4I).
1800 cells/well were seeded onto white flat bottom half area 96-well plates (Greiner Bio-One, Kremsmuenster, AT) in 50 μl of growth medium and allowed to attach in an incubator for 24 h. Then the drugs in DMSO and/or DMSO vehicle controls as 11× solutions in growth medium were added to a total volume of 55 μl and 0.1% DMSO final. The cells were grown in an incubator for another 72 h. Then, 55 μl of CellTiter-Glo 2.0 (Promega, Madison, Wis.) reagent/well were added according to the manufacturer's instructions and luminescence was quantified with a SpectraMax 190 plate reader (Molecular Devices, San Jose, Calif.). The CHEK1/2 inhibitor AZD7762 (Selleckchem, Houston, Tex.) and the NUAK1/2 inhibitor WZ4003 (Tocris Bioscience, Minneapolis, Minn.) were applied at 8 different concentrations between 10 μM and 4.6 nM (3-fold dilution steps) and Dinaciclib (Selleckchem) was applied at 8 different concentrations between 1 μM and 0.5 nM (3-fold dilution steps). Experiments were performed in four biological replicates. Growth inhibition curves were fitted using the GraphPad Prism software package (V5.0a) with a least-squares nonlinear regression model for curve fitting (One site-Fit log IC50 function).

Row | Structure (SMILES) | effect of knockdown of AAK1 and interaction partners on drug treatment [1] | effect of CAMK1D knockdown on drug treatment [2] | decrease of EC50 on cotreatment with WZ4003 (SNU449 cells) | significance of the cotreatment effect at low WZ4003 (SNU449 cells; 1 μM of WZ4003 with AZD7762) | dose dependence of the cotreatment effect (SNU449 cells)
1 | O=c1[nH]c2ccc(Cl)cc2c(N[C@@H]2CN3CCC2CC3)c1-c1nc2ccccc2[nH]1 [CHIR-124] | sensitizes | sensitizes | – | – | –
2 | CCc1cnn2c(NCc3ccc[n+]([O-])c3)cc(N3CCCC[C@H]3CCO)nc12 [dinaciclib, Dinaciclib] | – | – | ~2 fold | – | –
3 | CCC(=O)Nc1cccc(Oc2nc(Nc3ccc(N4CCN(C)CC4)cc3OC)ncc2Cl)c1 [WZ4003] | – | – | – | still significant | dose-dependent
4 | NC(=O)Nc1cc(-c2cccc(F)c2)sc1C(=O)N[C@H]1CCCNC1 [AZD7762] | sensitizes | sensitizes | ~3 fold | – | dose-dependent
